Tested on: morphine inhibition of prostaglandin E2 (PGE2) induced diarrhea
Test: Antagonism of morphine-inhibited diarrhea in mice
Type: in vivo, mice (Swiss-Webster)
Details: morphine 1 mg/kg s.c., PGE2 320 μg/kg at 30 min, watery stools observed, result shown only in figure
Procedure: Albino mice of either sex (Swiss-Webster) weighing 20-30 g were used to determine the ability of an opioid antagonist to antagonize morphine inhibition of prostaglandin E2 (PGE2) induced diarrhea according to the method of Dajani et al. (1979). Briefly, mice are treated at time 0 with morphine, 1 mg/kg s.c. and an opioid antagonist, 60, 180, 240, 300, 360, 480, or 720 mg/kg orally; or 3, 10, 30, 100 or 140 mg/kg i.p; or saline, 0.1 ml/10 gm body weight orally or i.p. Mice are then treated at 30 min with PGE2, 320 μg/kg which consistently produced watery stools in the absence of morphine. […] Eleven to 24 mice were used per dose of an opioid antagonist for the oral and 6 are used for the i.p. routes. Data was analyzed using Fisher's exact probability test (Siegel, 1956). These studies were repeated using naltrexone, 0.005, 0.01, 0.05, 0.1, and 5 mg/kg i.p. and 0.5, 1, 2, and 4 mg/kg orally.

Structure (SMILES) | Inhibition of morphine blockade of PGE2-induced diarrhea
NC(=O)c1ccc2c(c1O)[C@]13CCN(CC4CC4)[C@H](C2)[C@]1(O)CC[C@@H](NC(=O)[C@@H](N)CC(=O)O)C3 [Compound 12] | Inhibition of morphine blockade of PGE2-induced diarrhea
NC(=O)c1ccc2c(c1O)[C@]13CCN(CC4CC4)[C@H](C2)[C@]1(O)CC[C@@H](NC(CC(=O)O)C(=O)O)C3 (some centres unmarked) [Compound 13] | Inhibition of morphine blockade of PGE2-induced diarrhea

From patent publication US8354534B2, “Selective opioid compounds” (Alkermes, Inc., priority 2008, dated 2013)
